Laboratory results reported in patent publication US9045445B2, “Glycine transporter-1 inhibitors, methods of making them, and uses thereof” (Albany Molecular Research, Inc., priority 2010, dated 2015).
Where a name gives a salt, the structure may show the parent alone.

molecular target: T1, glycine transporter-1 (GlyT-1) (Homo sapiens, UniProt P48067); test: [14C]glycine uptake assay in JAR cells endogenously expressing GlyT-1 (scintillation proximity); assay type: cell-based; details: GlyT-1 IC50 (nM)
T1 construct: JAR cells (ATCC#HTB-144), which endogenously express GlyT-1; host or cells: JAR human choriocarcinoma cells
T1 sequence (P48067 1-706): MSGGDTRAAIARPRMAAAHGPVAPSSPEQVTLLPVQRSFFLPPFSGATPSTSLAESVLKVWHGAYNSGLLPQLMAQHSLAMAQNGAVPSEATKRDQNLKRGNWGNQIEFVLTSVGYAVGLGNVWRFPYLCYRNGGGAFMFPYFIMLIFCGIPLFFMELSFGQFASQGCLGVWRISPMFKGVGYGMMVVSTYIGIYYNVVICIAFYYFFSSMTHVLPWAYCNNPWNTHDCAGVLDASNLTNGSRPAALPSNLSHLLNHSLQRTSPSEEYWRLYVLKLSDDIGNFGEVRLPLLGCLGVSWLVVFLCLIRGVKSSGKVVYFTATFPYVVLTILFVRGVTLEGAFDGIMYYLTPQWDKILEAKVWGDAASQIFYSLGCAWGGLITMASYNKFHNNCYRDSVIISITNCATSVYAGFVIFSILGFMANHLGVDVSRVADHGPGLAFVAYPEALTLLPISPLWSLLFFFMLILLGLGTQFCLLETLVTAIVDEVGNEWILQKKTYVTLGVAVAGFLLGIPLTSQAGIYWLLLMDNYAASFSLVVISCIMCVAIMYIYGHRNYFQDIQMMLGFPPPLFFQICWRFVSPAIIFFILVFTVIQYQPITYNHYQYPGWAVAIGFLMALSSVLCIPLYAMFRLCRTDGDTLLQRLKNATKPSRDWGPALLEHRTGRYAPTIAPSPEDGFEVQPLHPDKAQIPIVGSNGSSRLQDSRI
Experimental: The inhibitory activity of compounds of the invention against the glycine transporter-1 (GlyT-1) can be determined by the following scintillation proximity assay. The potency of each compound was assessed in inhibiting the uptake of radiolabeled glycine ([^14C]glycine) using the human choriocarcinoma cell line, JAR cells (ATCC#HTB-144), which endogenously express GlyT-1. In brief, 50,000 JARS cells were plated per well of tissue culture treated 96-well Cytostar-T plate (PerkinElmer) in RPMI media supplemented with 10% heat inactivated FBS and allowed to attach overnight at 37° C. and 5% CO2. Compounds were serially diluted 3-fold in DMSO generating a nine (9) data point response curve for each compound. Two replicates were performed per determination. The compounds were then diluted into Uptake Buffer (10 mM Hepes, 120 mM NaCl, 2 mM KCl, 1 mM CaCl2 and 1 mM MgCl2, 5 mM Alanine, pH 7.4) with a final DMSO concentration of 0.75% (v/v). Following the overnight incubation, the media was replaced with Uptake Buffer in the presence or absence of diluted compound and pre-incubated at room temperature for 10 minutes prior to the addition of [^14C]glycine at a final concentration of 5 μM. Following a 3 hour incubation period at 37° C. and 5% CO2, the plates were sealed and placed at room temperature in the dark for 15 minutes prior to quantification of incorporated radioactivity using a MicroBeta Trilux scintillation plate reader (PerkinElmer). Data were fit into a four-parameter model to determine the inhibitor concentration at half-maximal response (IC50). The assay window was established by control wells incubated with [^14C]glycine in the presence or absence of 10 mM non-labeled glycine. A dose response curve for a synthesized reference standard was generated on every plate as a positive control.

Structure (SMILES) | IC50 [nM]
CCCS(=O)(=O)N1CCN(C2(CNC(=O)c3c(F)cccc3F)CC3CC3C2)CC1 (centres unmarked) [compound 199, 2,6-Difluoro-N-((3-(4-(propylsulfonyl)piperazin-1-yl)bicyclo[3.1.0]hexan-3-yl)methyl)benzamide Hydrochloride] | 621

same assay, conditions: JAR cells, [14C]glycine 5 μM, 3 hour incubation; read-out: GlyT-1 IC50

Structure (SMILES) | IC50 [nM]
Cn1cnc(S(=O)(=O)N2CCN(C3(CNC(=O)c4c(F)cccc4Cl)CCC(F)(F)CC3)CC2)c1 [compound 180, 2-Chloro-N-((4,4-difluoro-1-(4-(1-methyl-1H-imidazol-4-ylsulfonyl)piperazin-1-yl)cyclohexyl)methyl)-6-fluorobenzamide Hydrochloride] | 8
Cc1cccc(Cl)c1C(=O)NCC1(N2CCN(S(=O)(=O)c3cn(C)cn3)CC2)CCC(F)(F)CC1 [compound 181, 2-Chloro-N-((4,4-difluoro-1-(4-(1-methyl-1H-imidazol-4-ylsulfonyl)piperazin-1-yl)cyclohexyl)methyl)-6-methylbenzamide Hydrochloride] | 2
Cc1cccc(F)c1C(=O)NCC1(N2CCN(S(=O)(=O)c3cn(C)cn3)CC2)CCC(F)(F)CC1 [compound 182, N-((4,4-Difluoro-1-(4-(1-methyl-1H-imidazol-4-ylsulfonyl)piperazin-1-yl)cyclohexyl)methyl)-2-fluoro-6-methylbenzamide Hydrochloride] | 6
Cc1cc(F)ccc1C(=O)NCC1(N2CCN(S(=O)(=O)c3cn(C)cn3)CC2)CCC(F)(F)CC1 [compound 184, N-((4,4-Difluoro-1-(4-(1-methyl-1H-imidazol-4-ylsulfonyl)piperazin-1-yl)cyclohexyl)methyl)-4-fluoro-2-methylbenzamide Hydrochloride] | 13
Cn1cnc(S(=O)(=O)N2CCN(C3(CNC(=O)c4c(F)cccc4OC(F)(F)F)CCC(F)(F)CC3)CC2)c1 [compound 186, N-((4,4-Difluoro-1-(4-(1-methyl-1H-imidazol-4-ylsulfonyl)piperazin-1-yl)cyclohexyl)methyl)-2-fluoro-6-(trifluoromethoxy) benzamide Hydrochloride] | 1
Cn1cnc(S(=O)(=O)N2CCN(C3(CNC(=O)c4c(F)cccc4OC(F)F)CCC(F)(F)CC3)CC2)c1 [compound 188, N-((4,4-Difluoro-1-(4-(1-methyl-1H-imidazol-4-ylsulfonyl)piperazin-1-yl)cyclohexyl)methyl)-2-(difluoromethoxy)-6-fluorobenzamide Hydrochloride] | 1
Cn1cc(S(=O)(=O)N2CCN(C3(CNC(=O)c4c(Cl)cccc4Cl)CCC(F)(F)CC3)CC2)nn1 [compound 190, 2,6-Dichloro-N-((4,4-difluoro-1-(4-(1-methyl-1H-l,2,3-triazol-4-ylsulfonyl)piperazin-1-yl)cyclohexyl)methyl) benzamide Hydrochloride] | 1
Cn1cc(S(=O)(=O)N2CCN(C3(CNC(=O)c4c(Cl)cccc4OC(F)(F)F)CCC(F)(F)CC3)CC2)nn1 [compound 191, 2-Chloro-N-((4,4-difluoro-1-(4-(1-methyl-1H-1,2,3-triazol-4-ylsulfonyl)piperazin-1-yl)cyclohexyl)methyl)-6-(trifluoromethoxy) benzamide Hydrochloride] | 1
CCCS(=O)(=O)N1CCN(C2(C(C)NC(=O)c3c(F)cccc3F)CCC(F)(F)CC2)CC1 (centres unmarked) [compound 196, N-(1-(4,4-Difluoro-1-(4-(propylsulfonyl)piperazin-1-yl)cyclohexyl)ethyl)-2,6-difluorobenzamide Hydrochloride] | 3780
CCCS(=O)(=O)N1CCN(C2(C(C)NC(=O)c3c(F)cccc3F)CCC(F)(F)CC2)CC1 (centres unmarked) [compound 197, N-(1-(4,4-Difluoro-1-(4-(propylsulfonyl)piperazin-1-yl)cyclohexyl)ethyl)-2,6-difluorobenzamide Hydrochloride] | 304
CCCS(=O)(=O)N1CCN(C2(CNC(=O)c3c(F)cccc3F)CCC3(CC3)CC2)CC1 [compound 198, 2,6-Difluoro-N-((6-(4-(propylsulfonyl)piperazin-1-yl)spiro[2.5]octan-6-yl)methyl)benzamide Hydrochloride] | 162
CCS(=O)(=O)N1CCN(C2(CNC(=O)c3c(F)cc(Cl)cc3F)CCC(F)(F)CC2)CC1 [compound 208, 4-Chloro-N-((1-(4-(ethylsulfonyl)piperazin-1-yl)-4,4-difluoro-cyclohexyl)methyl)-2,6-difluorobenzamide Hydrochloride] | 137
CCS(=O)(=O)N1CCN(C2(CNC(=O)c3c(F)cc(Cl)cc3Cl)CCC(F)(F)CC2)CC1 [compound 210, 2,4-Dichloro-N-((1-(4-(ethylsulfonyl)piperazin-1-yl)-4,4-difluorocyclohexyl)methyl)-6-fluorobenzamide Hydrochloride] | 72

More lines, now with the values ahead:

IC50 [nM] | Structure (SMILES)
187 | CCS(=O)(=O)N1CCN(C2(CNC(=O)c3ccc(C(C)(F)F)cc3Cl)CCC(F)(F)CC2)CC1 [compound 205, 2-Chloro-4-(1,1-difluoroethyl)-N-((1-(4-(ethylsulfonyl)piperazin-1-yl)-4,4-difluorocyclohexyl)methyl) benzamide Hydrochloride]
95 | CCS(=O)(=O)N1CCN(C2(CNC(=O)c3ccc(C(F)(F)F)cc3C(F)(F)F)CCC(F)(F)CC2)CC1 [compound 204, N-((1-(4-(Ethylsulfonyl)piperazin-1-yl)-4,4-difluorocyclohexyl)methyl)-2,4-bis(trifluoromethyl) benzamide Hydrochloride]
83 | CCS(=O)(=O)N1CCN(C2(CNC(=O)c3c(Cl)cc(C(F)(F)F)cc3C(F)(F)F)CCC(F)(F)CC2)CC1 [compound 206, 2-Chloro-N-((1-(4-(ethylsulfonyl)piperazin-1-yl)-4,4-difluorocyclohexyl)methyl)-4,6-bis(trifluoromethyl) benzamide Hydrochloride]
83 | CCS(=O)(=O)N1CCN(C2(CNC(=O)c3c(Cl)cc(Cl)cc3Cl)CCC(F)(F)CC2)CC1 [compound 209, 2,4,6-Trichloro-N-((1-(4-(ethylsulfonyl)piperazin-1-yl)-4,4-difluorocyclohexyl)methyl) benzamide Hydrochloride]
34 | COc1ccccc1C(=O)NCC1(N2CCN(S(=O)(=O)c3cn(C)cn3)CC2)CCC(F)(F)CC1 [compound 177, N-((4,4-Difluoro-1-(4-(1-methyl-1H-imidazol-4-ylsulfonyl)piperazin-1-yl)cyclohexyl)methyl)-2-methoxybenzamide Hydrochloride]
25 | Cc1ccccc1C(=O)NCC1(N2CCN(S(=O)(=O)c3cn(C)cn3)CC2)CCC(F)(F)CC1 [compound 179, N-((4,4-difluoro-1-(4-(1-methyl-1H-imidazol-4-ylsulfonyl)piperazin-1-yl)cyclohexyl)methyl)-2-methylbenzamide Hydrochloride]
5 | Cn1cnc(S(=O)(=O)N2CCN(C3(CNC(=O)c4ccc(Cl)cc4Cl)CCC(F)(F)CC3)CC2)c1 [compound 178, 2,4-Dichloro-N-((4,4-difluoro-1-(4-(1-methyl-1H-imidazol-4-ylsulfonyl)piperazin-1-yl)cyclohexyl)methyl) benzamide Hydrochloride]
5 | Cn1cnc(S(=O)(=O)N2CCN(C3(CNC(=O)c4ccccc4OC(F)F)CCC(F)(F)CC3)CC2)c1 [compound 183, N-((4,4-Difluoro-1-(4-(1-methyl-1H-imidazol-4-ylsulfonyl)piperazin-1-yl)cyclohexyl)methyl)-2-(difluoromethoxy) benzamide Hydrochloride]
1 | Cn1cnc(S(=O)(=O)N2CCN(C3(CNC(=O)c4c(Cl)cccc4OC(F)(F)F)CCC(F)(F)CC3)CC2)c1 [compound 187, 2-Chloro-N-((4,4-difluoro-1-(4-(1-methyl-1H-imidazol-4-ylsulfonyl)piperazin-1-yl)cyclohexyl)methyl)-6-(trifluoromethoxy) benzamide Hydrochloride]
